Reference: ChEMBL document CHEMBL1201862, “PubChem BioAssay data set” (2004)
Active and inactive are the calls of the source.

Experiments:
Kallikrein-7 = Kallikrein-7 (Homo sapiens, UniProt P49862); experiment: Fluorescence Intensity-based biochemical primary high throughput dose response assay to identify activators of kallikrein-7 (K7) zymogen.
Cytochrome P450 2C19 = Cytochrome P450 2C19 (Homo sapiens, UniProt P33261); experiment: Cytochrome panel assay with activity outcomes. Panel member name: p450-cyp2c19 Compounds with AC50 equal or less than 10 uM are considered active; format: functional
Cytochrome P450 2C9 [1] = target: T1, Cytochrome P450 2C9 (Homo sapiens, UniProt P11712)
Cytochrome P450 3A4 [2] = target: T2, Cytochrome P450 3A4 (Homo sapiens, UniProt P08684)
[3] = target: Eukaryotic translation initiation factor 4E (Mus musculus, UniProt P63073); experiment: eIF4E–eIF4G protein interaction inhibitors, dose response, biochemical, TR-FRET (AID 855); format: functional;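 note: potency for disrupting eIF4E binding to eIF4GI seen as loss of FRET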
Cytochrome P450 1A2 = target: T3, Cytochrome P450 1A2 (Homo sapiens, UniProt P05177);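 note: PubChem cytochrome P450 panel assay, CYP1A2 panel member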
T3 sequence (P05177 whole entry): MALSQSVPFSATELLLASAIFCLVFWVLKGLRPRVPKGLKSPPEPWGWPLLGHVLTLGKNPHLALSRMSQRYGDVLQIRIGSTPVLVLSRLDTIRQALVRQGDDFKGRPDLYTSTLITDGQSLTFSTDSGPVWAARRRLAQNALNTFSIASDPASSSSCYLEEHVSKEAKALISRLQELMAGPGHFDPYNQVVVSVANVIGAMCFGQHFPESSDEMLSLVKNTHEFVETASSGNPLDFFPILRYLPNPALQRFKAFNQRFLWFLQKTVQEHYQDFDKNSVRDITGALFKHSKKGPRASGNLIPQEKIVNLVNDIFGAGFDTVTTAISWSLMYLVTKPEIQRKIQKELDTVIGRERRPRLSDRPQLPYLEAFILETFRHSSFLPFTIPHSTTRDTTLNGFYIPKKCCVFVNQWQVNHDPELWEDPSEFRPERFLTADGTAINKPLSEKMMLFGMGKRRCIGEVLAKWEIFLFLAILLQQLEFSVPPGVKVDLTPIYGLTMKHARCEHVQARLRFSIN

Cytochrome P450 2D6 = Cytochrome P450 2D6 (Homo sapiens, UniProt P10635);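 note: CYP2D6 member of a cytochrome P450 panel assay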
Cytochrome P450 2C9 [4] = target: T1, Cytochrome P450 2C9; remark: listed apart in the source
[5] = Shn3 3'UTR reporter inhibitors, dose response, cell-based, Clone20 osteoblasts, firefly luciferase, cherry-picked (AID 624132); format: functional;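 note: firefly luciferase luminescence from reporter carrying the Shn3 3'UTR in osteoblasts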
[6] = control 3'UTR Renilla luciferase suppression, dose response, counter-screen for Shn3 inhibitor project, cell-based, Clone20-Shn3RL, cherry-picked (AID 624133); format: functional
Protein Wnt-3a = Protein Wnt-3a (Mus musculus, UniProt P27467); experiment: Wnt3a-driven reporter signaling inhibition, dose response, selectivity assay for Gli-SUFU antagonist project, Wnt-LIGHT cells, luminescence (AID 651570); format: functional; conditions: read-out: IC50_Mean;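 note: Wnt-LIGHT reporter cells stimulated with conditioned medium from Wnt3a-producing cells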
Cytochrome P450 3A4 [7] = target: T2, Cytochrome P450 3A4; remark: listed apart in the source
INS1 = experiment: beta cell apoptosis inhibitors, cytokine rescue, dose response, luminescence, retest (AID 449756); format: functional, cell-based; conditions: Rattus norvegicus;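 note: cell death triggered by IL-1 beta plus TNF-alpha plus IFN-gamma mixture; protective hits raise ATP signal compared with cytokine alone wells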
Cytochrome P450 3A4 [8] = target: T2, Cytochrome P450 3A4; conditions: Potency
[9] = inhibitors of firefly luciferase expression or activity, dose response, H4 neuroglioma cells, luminescence (AID 1990); format: functional, cell-based
BJ [10] = experiment: cytotoxicity toward BJ-TERT fibroblasts, dose response, cell-based, RAS-independent, luminescence (AID 1933); format: functional; conditions: Homo sapiens
[11] = Luminescence Cell-Based Dose Response HTS to Identify Inhibitors of 5'UTR Stem-Loop Driven Prion Protein mRNA Translation in H4 Neuroglioblastoma Cells. [Related pubchem assays: 1827 (Project Summary), 1813 (Primary HTS)]; format: functional
[12] = inhibitors of SNCA 5'UTR-driven reporter translation, confirmation, H4 neuroglioma cells, luminescence (AID 1988); format: functional, cell-based
BJ [13] = experiment: cells; format: functional, cell-based; conditions: Homo sapiens
BJ [14] = experiment: cytotoxicity toward BJ-TERT-LT-ST fibroblasts, dose response, cell-based, RAS-independent, luminescence (AID 1935); format: functional; conditions: Homo sapiens;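 note: BJ fibroblasts immortalized with TERT plus LT and ST oncogenes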
[15] = cytotoxicity toward DRD oncogenic fibroblasts, dose response, cell-based, non-viral oncogenic, luminescence (AID 1934); format: functional; conditions: Homo sapiens
[16] = Luminescence Cell-Based Dose Retest to Confirm Inhibitors of Cancer Stem Cells. [Related pubchem assays (depositor defined):AID2717, AID2721]; format: functional; conditions: Homo sapiens
BJ [17] = experiment: cytotoxicity toward Ras-transformed BJeLR fibroblasts, dose response, cell-based, alamar blue fluorescence, cherrypicked samples (AID 2631); format: functional; conditions: Homo sapiens;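 note: confirmatory dose-response assay in RAS-dependent BJ fibroblasts engineered with TERT, LT and ST, with cytotoxicity read by fluorescence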
[18] = target: T4, Short transient receptor potential channel 4 (Mus musculus, UniProt Q9QUQ5); experiment: mouse TRPC4 channel activators, dose response, cell-based, HEK293 TRPC4/mu-opioid, Fluo-4 calcium (AID 434937); format: functional
T4 sequence (Q9QUQ5 whole entry): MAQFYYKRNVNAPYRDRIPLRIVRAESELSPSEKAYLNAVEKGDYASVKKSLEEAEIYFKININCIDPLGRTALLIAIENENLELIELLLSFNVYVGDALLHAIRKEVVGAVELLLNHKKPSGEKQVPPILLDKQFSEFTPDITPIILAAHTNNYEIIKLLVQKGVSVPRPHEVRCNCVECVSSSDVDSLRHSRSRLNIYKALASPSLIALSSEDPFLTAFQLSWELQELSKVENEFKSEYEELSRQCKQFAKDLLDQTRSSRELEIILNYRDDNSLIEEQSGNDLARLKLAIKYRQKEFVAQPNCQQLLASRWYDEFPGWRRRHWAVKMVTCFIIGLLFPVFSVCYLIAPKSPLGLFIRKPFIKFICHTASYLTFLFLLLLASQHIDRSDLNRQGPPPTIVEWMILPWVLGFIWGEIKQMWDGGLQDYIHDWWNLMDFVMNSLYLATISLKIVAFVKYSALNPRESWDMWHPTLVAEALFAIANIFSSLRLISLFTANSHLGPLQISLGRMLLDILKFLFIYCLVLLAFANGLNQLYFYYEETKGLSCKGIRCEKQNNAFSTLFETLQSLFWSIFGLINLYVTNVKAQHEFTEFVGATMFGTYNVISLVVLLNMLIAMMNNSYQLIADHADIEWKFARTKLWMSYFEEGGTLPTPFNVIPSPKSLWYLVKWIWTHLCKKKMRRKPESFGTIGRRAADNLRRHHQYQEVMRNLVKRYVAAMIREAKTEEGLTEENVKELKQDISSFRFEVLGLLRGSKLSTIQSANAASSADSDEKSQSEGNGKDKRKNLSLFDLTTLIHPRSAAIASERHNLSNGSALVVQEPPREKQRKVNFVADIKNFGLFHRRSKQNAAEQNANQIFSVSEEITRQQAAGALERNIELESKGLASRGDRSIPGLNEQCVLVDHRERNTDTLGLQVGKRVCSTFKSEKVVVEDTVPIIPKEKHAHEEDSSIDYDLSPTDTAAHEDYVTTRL

[19] = A cytotoxicity screen of small molecule inhibitors of the PhoP region in Salmonella typhi identified in the primary screen. [Related pubchem assays: 1850, 1864, 1985 ]; format: functional

T2 sequence (P08684 whole entry): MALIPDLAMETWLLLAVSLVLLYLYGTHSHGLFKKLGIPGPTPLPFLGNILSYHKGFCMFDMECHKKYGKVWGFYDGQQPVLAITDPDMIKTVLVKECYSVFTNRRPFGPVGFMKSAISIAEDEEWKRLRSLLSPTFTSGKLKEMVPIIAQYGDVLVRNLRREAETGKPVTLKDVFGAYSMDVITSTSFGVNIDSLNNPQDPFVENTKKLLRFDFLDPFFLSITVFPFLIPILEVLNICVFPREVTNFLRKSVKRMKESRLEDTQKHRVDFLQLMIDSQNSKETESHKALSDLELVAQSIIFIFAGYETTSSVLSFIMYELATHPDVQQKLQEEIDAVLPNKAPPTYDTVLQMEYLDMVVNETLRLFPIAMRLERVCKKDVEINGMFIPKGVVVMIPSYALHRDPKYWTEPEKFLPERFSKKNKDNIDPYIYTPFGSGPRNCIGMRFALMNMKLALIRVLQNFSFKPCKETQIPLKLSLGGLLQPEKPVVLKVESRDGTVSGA
Cytochrome P450 2C19, sequence (P33261 whole entry): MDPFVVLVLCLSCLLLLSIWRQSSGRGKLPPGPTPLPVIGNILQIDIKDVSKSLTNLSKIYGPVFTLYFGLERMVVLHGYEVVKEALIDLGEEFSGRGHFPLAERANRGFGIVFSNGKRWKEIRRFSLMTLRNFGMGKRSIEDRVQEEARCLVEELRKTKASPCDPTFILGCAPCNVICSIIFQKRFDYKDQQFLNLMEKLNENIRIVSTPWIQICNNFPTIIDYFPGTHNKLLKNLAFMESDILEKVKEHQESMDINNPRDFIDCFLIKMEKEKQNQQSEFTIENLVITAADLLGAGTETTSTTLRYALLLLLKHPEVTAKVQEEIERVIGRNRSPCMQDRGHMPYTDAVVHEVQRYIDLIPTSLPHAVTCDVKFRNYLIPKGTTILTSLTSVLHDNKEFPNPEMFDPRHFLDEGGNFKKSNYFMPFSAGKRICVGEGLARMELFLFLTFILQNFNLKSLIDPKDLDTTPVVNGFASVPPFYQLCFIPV
T1 sequence (P11712 whole entry): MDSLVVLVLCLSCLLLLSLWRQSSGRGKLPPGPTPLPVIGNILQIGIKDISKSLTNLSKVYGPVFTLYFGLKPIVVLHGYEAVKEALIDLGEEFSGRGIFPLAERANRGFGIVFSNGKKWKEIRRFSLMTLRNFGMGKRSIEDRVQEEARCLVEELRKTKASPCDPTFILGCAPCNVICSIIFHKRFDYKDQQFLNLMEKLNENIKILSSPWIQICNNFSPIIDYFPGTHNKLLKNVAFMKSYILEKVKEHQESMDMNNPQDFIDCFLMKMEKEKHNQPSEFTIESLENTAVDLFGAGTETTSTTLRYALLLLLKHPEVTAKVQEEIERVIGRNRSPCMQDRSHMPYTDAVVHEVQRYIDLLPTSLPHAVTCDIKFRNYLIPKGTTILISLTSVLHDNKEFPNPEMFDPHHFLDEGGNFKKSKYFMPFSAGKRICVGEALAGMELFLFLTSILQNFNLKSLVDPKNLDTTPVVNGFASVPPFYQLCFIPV
Eukaryotic translation initiation factor 4E, sequence (P63073 whole entry): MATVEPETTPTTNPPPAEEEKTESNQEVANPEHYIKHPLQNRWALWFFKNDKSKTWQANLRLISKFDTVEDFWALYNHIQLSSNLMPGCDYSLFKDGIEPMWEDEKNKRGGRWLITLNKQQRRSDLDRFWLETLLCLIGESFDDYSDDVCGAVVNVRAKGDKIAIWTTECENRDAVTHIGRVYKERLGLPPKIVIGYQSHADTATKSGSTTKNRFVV
Protein Wnt-3a, sequence (P27467 whole entry): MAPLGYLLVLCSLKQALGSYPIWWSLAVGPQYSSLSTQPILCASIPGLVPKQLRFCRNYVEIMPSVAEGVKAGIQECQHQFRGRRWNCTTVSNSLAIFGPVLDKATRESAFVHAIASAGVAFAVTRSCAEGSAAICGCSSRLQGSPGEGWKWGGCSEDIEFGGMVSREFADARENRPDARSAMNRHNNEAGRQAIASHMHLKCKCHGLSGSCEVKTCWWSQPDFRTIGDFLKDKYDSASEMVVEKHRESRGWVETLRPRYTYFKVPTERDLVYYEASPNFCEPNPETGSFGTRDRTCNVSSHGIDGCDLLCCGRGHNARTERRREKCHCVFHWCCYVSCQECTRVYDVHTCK
Kallikrein-7, sequence (P49862 whole entry): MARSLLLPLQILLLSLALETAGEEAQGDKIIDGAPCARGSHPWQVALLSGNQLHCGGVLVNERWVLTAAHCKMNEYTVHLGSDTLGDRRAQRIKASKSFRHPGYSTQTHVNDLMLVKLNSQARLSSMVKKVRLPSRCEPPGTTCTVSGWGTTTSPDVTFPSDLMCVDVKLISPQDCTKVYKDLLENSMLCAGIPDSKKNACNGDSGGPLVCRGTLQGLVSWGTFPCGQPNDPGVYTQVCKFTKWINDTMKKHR
Cytochrome P450 2D6, sequence (P10635 whole entry): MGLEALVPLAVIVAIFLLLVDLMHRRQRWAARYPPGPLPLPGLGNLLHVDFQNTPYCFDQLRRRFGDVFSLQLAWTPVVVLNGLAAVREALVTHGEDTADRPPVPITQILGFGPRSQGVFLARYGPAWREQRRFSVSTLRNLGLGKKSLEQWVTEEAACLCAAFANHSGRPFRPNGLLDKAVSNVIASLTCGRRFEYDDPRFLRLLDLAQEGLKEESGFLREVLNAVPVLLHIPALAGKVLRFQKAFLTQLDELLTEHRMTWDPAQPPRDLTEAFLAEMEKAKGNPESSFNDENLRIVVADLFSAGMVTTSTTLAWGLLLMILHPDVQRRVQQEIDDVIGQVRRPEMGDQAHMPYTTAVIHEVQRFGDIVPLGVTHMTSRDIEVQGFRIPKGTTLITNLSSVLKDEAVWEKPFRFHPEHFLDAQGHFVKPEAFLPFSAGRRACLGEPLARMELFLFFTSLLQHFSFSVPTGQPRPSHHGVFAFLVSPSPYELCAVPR

COC(=O)CNC(=O)COC(=O)c1cc(Cl)cc(Cl)c1N
EC50 (Kallikrein-7): > 69.5 µM (inactive)

CCOC(=O)C(Sc1ncnc2c1sc1nc(N3CCOCC3)c3c(c12)CCCC3)c1ccccc1 (stereo not given)
AC50 (Cytochrome P450 2C19; read-out: AC50): 10 µM (inconclusive) | AC50 (Cytochrome P450 2C9 [1]): 0.316 µM (inconclusive) | AC50 (Cytochrome P450 3A4 [2]): inconclusive

COCC(=O)Oc1c(Sc2ccccc2[N+](=O)[O-])c(C)nn1C(C)(C)C
IC50 [3]: 50 µM (inactive)

Cn1cccc1C(=O)N1CCC2(CC1)CCN(c1ccc(-c3ccccc3)cc1)CC2
AC50 (Cytochrome P450 1A2): 20 µM (inconclusive) | AC50 (Cytochrome P450 3A4 [2]): inconclusive

COc1ccccc1CN1CC2(CCN(S(=O)(=O)c3ccccc3)CC2)C1
AC50 (Cytochrome P450 2C19): inconclusive | AC50 (Cytochrome P450 2D6): inconclusive | AC50 (Cytochrome P450 2C9 [4]): inconclusive

Cc1nn(Cc2noc(C(=O)NC3CCC(C)CC3)n2)c(C)c1Br (stereo not given)
AC50 [5]: 3.28 µM (active) | AC50 [6]: 6.78 µM (active) | IC50 (Protein Wnt-3a): 4.35 µM (active)

CS(=O)(=O)N1CCC2(CCN(C(c3ccccc3)c3ccccc3)CC2)CC1
AC50 (Cytochrome P450 3A4 [2]): inconclusive

CSc1ccc(Cl)c(C(=O)NCCOc2cc(C)ccc2C(C)C)c1
AC50 (Cytochrome P450 3A4 [7]): 1 µM (inconclusive) | AC50 (Cytochrome P450 2C9 [4]): inconclusive

CC1Cc2cc(S(=O)(=O)N3CCC(C(=O)N4CCN(c5ccccc5F)CC4)CC3)ccc2N1C(=O)C1CC1 (stereo not given)
AC50 (INS1): 5.34 µM (active) | AC50 [5]: 1.65 µM (active) | AC50 [6]: 4.74 µM (active) | IC50 (Protein Wnt-3a): 5.83 µM (active)

CCN(CC)CCn1c(-c2ccccc2)nc2c(NCCOC)nc(C)nc21
AC50 (Cytochrome P450 3A4 [8]): 12.6 µM (inconclusive)

O=Cc1cc2ccccc2nc1SCc1ccc(Cl)cc1
EC50 [9]: 9.87 µM (active) | EC50 (BJ [10]): 0.635 µM (active) | EC50 [11]: 0.745 µM (active) | EC50 [12]: 0.724 µM (active) | EC50 (BJ [13]): 0.699 µM (active) | EC50 (BJ [14]): 0.434 µM (active) | EC50 [15]: 1.1 µM (active) | AC50 [16]: 3.66 µM (active) | EC50 (BJ [17]): 0.134 µM (active)

Nc1nc2ncccn2c1-c1ccc(F)c(F)c1
EC50 (Kallikrein-7): 9.39 µM (active)

CN1CCN(c2ncc3nc(-c4ccc(F)cc4)c(=O)n(C4CC4)c3n2)CC1
AC50 (Cytochrome P450 2C19; read-out: AC50): 25.1 µM (inconclusive) | AC50 (Cytochrome P450 3A4 [2]): inconclusive

CC(COc1ccccc1)N1CCC(CO)(CCc2ccccc2)CC1 (stereo not given)
EC50 [18]: 0.267 µM (active)

O=C(CSc1ncn(-c2ccccc2)n1)N1CCc2ccccc21
IC50 [3]: > 64 µM (inactive)

CCCCOc1ccc(OCCNC(=O)c2ccco2)cc1
EC50 [19]: > 50 µM (active)

Cc1cc(C)nc(Nc2n[nH]c(COc3ccc4ccccc4c3)n2)n1
AC50 (Cytochrome P450 2C19; read-out: AC50): 17.8 µM (inconclusive) | AC50 (Cytochrome P450 1A2): 1.12 µM (inconclusive) | AC50 (Cytochrome P450 2D6): inconclusive

CC(=O)Oc1c2c(c3c(c1CC=C(C)C)O[C@@]14C(=CC5CC1C(C)(C)OC4(C/C=C(\C)C(=O)O)C5=O)C3=O)OC(C)(CCC=C(C)C)C=C2 (stereo not given in full)
AC50 (Cytochrome P450 3A4 [8]): 39.8 µM (inconclusive)
